Measurements reported in US20220016102A1, “ER PROTEIN REGULATORS AND USE THEREOF” (ShanghaiTech University, priority 2018, published 2022).

Assays:
ER protein [1] = target: T1, ER protein (Homo sapiens, UniProt P03372); assay: Western blotting analysis of ER protein degradation in T47D cell line; format: cell-based; parameters: western blotting detection of the level of intracellular ER protein; endogenous in cells; host or cells: T47D; settings: degradation of ER protein, T47D cells, drug treatment for 16 hours, Western blot gray values vs DMSO control; read-out: DC50 (nM)/T47Dcell line
T1 sequence (P03372 1-595): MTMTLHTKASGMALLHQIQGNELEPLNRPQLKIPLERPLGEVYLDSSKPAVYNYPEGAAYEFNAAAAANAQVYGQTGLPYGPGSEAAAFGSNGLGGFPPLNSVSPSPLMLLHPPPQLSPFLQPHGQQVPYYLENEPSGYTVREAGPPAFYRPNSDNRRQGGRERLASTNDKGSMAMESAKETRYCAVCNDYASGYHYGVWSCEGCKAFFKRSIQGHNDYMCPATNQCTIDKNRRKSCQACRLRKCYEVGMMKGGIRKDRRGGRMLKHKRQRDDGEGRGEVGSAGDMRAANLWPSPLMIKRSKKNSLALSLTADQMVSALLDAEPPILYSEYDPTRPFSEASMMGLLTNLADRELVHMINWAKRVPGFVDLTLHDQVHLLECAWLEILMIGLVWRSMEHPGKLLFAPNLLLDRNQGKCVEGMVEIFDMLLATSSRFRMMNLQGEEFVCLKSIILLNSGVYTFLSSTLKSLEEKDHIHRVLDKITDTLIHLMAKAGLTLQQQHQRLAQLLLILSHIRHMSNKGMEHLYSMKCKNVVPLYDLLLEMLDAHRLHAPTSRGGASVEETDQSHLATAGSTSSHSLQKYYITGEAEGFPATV
Description: T47D cells were cultured in an incubator with 5% CO2 at 37° C. Complete medium was RPMI1640 supplemented with 10% Foetal bovine serum (FBS), 100 U/ml Penicillin and Streptomycin, and 0.77 μg/mL recombinant human insulin. Western blotting analysis of T47D cell line: • Cells were plated in a 24-well plate at a cell seeding […] of 1.5×10^5 cells/mL, with 1 ml cell suspensions per well. • After 24 h the cells were adherent, and the cells in each well were treated with 1 μL a certain concentration of ER protein regulators of the present disclosure. […] Afterwards, the membranes were block by using the Blocking Buffer, and the antibody incubation and development were performed. (The above procedures were all based on the antibody product manual of the manufacturer) DC50 value (the drug concentration required for degrading proteins by 50%, abbreviated as DC50) reads method: comparing the gray values of the Western blotting bands for the drug treatment with the gray values of the Western blotting band for the DMSO control, and reading the drug concentration range corresponding to the gray value of the Western blotting bands for the drug treatment which is equal to half of the gray value of the Western blotting band for the DMSO control. DC50 value could also be calculated as follows: using software ImageJ to quantify the gray values of the Western blotting bands for the drug treatment, fitting the relationship curve between drug concentrations and gray values, and from the fitted curve, calculating the drug concentration corresponding to half of the gray value of the Western blotting band for the DMSO control.

ER protein [2] = target: T1, ER protein; assay: Western blotting analysis of ER protein degradation in MCF-7 cell line; format: cell-based; parameters: western blotting detection of the level of intracellular ER protein; endogenous in cells; settings: MCF-7 cells, Western blot gray values vs DMSO control
Description: MCF-7 were cultured in ncubator with 5% CO2 at 37° C. Complete medium was EMEM supplemented with 10% FBS, 100 U/mL Penicillin and Streptomycin, and 0.77 μg/mL recombinant human insulin. […]
DC50 value (the drug concentration required for degrading proteins by 50%, abbreviated as DC50) reads method: comparing the gray values of the Western blotting bands for the drug treatment with the gray values of the Western blotting band for the DMSO control, and reading the drug concentration range corresponding to the gray value of the Western blotting bands for the drug treatment which is equal to half of the gray value of the Western blotting band for the DMSO control.
DC50 value could also be calculated as follows: using software ImageJ to quantify the gray values of the Western blotting bands for the drug treatment, fitting the relationship curve between drug concentrations and gray values, and from the fitted curve, calculating the drug concentration corresponding to half of the gray value of the Western blotting band for the DMSO control.

Compound	DC50 (ER protein [1]) [nM]	DC50 (ER protein [2]) [nM]
Cc1ncsc1-c1ccc(CNC(=O)[C@@H]2C[C@@H](O)CN2C(=O)[C@@H](NC(=O)CCOCCOCCOCCC(=O)NCCOc2ccc(C(=C(CCCl)c3ccccc3)c3ccc(O)cc3)cc2)C(C)(C)C)cc1 [SIAIS208018, (2S,4R)-1-((S)-2-(tert-butyl)-19-(4-(4-chloro-1-(4-hydroxyphenyl)-2-phenylbut-1-en-1-yl)phenoxy)-4,16-dioxo-7,10,13-trioxa-3,17-diazanonadecanoyl)-4-hydroxy-N-(4-(4-methylthiazol-5-yl)benzyl)pyrrolidine-2-carboxamide]	< 50	< 50
Cc1ncsc1-c1ccc(CNC(=O)[C@@H]2C[C@@H](O)CN2C(=O)[C@@H](NC(=O)CCCC(=O)NCCOc2ccc(C(=C(CCCl)c3ccccc3)c3ccc(O)cc3)cc2)C(C)(C)C)cc1 [SIAIS208031, N1-(2-(4-(4-chloro-1-(4-hydroxyphenyl)-2-phenylbut-1-en-1-yl)phenoxy)ethyl)-N5-((S)-1-((2S,4R)-4-hydroxy-2-((4-(4-methylthiazol-5-yl)benzyl)carbamoyl)pyrrolidin-1-yl)-3,3-dimethyl-1-oxobutan-2-yl)glutaramide]	< 100	< 100
Cc1ncsc1-c1ccc(CNC(=O)[C@@H]2C[C@@H](O)CN2C(=O)[C@@H](NC(=O)CCCCC(=O)NCCOc2ccc(C(=C(CCCl)c3ccccc3)c3ccc(O)cc3)cc2)C(C)(C)C)cc1 [SIAIS208032, N1-(2-(4-(4-chloro-1-(4-hydroxyphenyl)-2-phenylbut-1-en-1-yl)phenoxy)ethyl)-N6-((S)-1-((2S,4R)-4-hydroxy-2-((4-(4-methylthiazol-5-yl)benzyl)carbamoyl)pyrrolidin-1-yl)-3,3-dimethyl-1-oxobutan-2-yl)adipamide]	< 50	< 100
Cc1ncsc1-c1ccc(CNC(=O)[C@@H]2C[C@@H](O)CN2C(=O)[C@@H](NC(=O)CCCCCCCCCC(=O)NCCOc2ccc(C(=C(CCCl)c3ccccc3)c3ccc(O)cc3)cc2)C(C)(C)C)cc1 [SIAIS208037, N1-(2-(4-(4-chloro-1-(4-hydroxyphenyl)-2-phenylbut-1-en-1-yl)phenoxy)ethyl)-N11-((S)-1-((2S,4R)-4-hydroxy-2-((4-(4-methylthiazol-5-yl)benzyl)carbamoyl)pyrrolidin-1-yl)-3,3-dimethyl-1-oxobutan-2-yl)undecanediamide]	< 10	< 10
Cc1ncsc1-c1ccc(CNC(=O)[C@@H]2C[C@@H](O)CN2C(=O)[C@@H](NC(=O)CCCCCCCCCCCCC(=O)NCCOc2ccc(C(=C(CCCl)c3ccccc3)c3ccc(O)cc3)cc2)C(C)(C)C)cc1 [SIAIS208038, N1-(2-(4-(4-chloro-1-(4-hydroxyphenyl)-2-phenylbut-1-en-1-yl)phenoxy)ethyl)-N14-((S)-1-((2S,4R)-4-hydroxy-2-((4-(4-methylthiazol-5-yl)benzyl)carbamoyl)pyrrolidin-1-yl)-3,3-dimethyl-1-oxobutan-2-yl)tetradecanediamide]	< 50	< 10
Cc1ncsc1-c1ccc(CNC(=O)[C@@H]2C[C@@H](O)CN2C(=O)[C@@H](NC(=O)CCCCCCCCCCCCCCC(=O)NCCOc2ccc(C(=C(CCCl)c3ccccc3)c3ccc(O)cc3)cc2)C(C)(C)C)cc1 [SIAIS208039, N1-(2-(4-(4-chloro-1-(4-hydroxyphenyl)-2-phenylbut-1-en-1-yl)phenoxy)ethyl)-N16-((S)-1-((2S,4R)-4-hydroxy-2-((4-(4-methylthiazol-5-yl)benzyl)carbamoyl)pyrrolidin-1-yl)-3,3-dimethyl-1-oxobutan-2-yl)hexadecanediamide]	< 50	< 100
Cc1ncsc1-c1ccc(CNC(=O)[C@@H]2C[C@@H](O)CN2C(=O)[C@@H](NC(=O)COCCOCC(=O)NCCOc2ccc(C(=C(CCCl)c3ccccc3)c3ccc(O)cc3)cc2)C(C)(C)C)cc1 [SIAIS208041, (2S,4R)-1-((S)-2-(tert-butyl)-14-(4-(4-chloro-1-(4-hydroxyphenyl)-2-phenylbut-1-en-1-yl)phenoxy)-4,11-dioxo-6,9-dioxa-3,12-diazatetradecanoyl)-4-hydroxy-N-(4-(4-methylthiazol-5-yl)benzyl)pyrrolidine-2-carboxamide]	< 10	10

Further lines, results first:

DC50 (ER protein [1]) [nM]	DC50 (ER protein [2]) [nM]	Compound
< 10	< 50	Cc1ncsc1-c1ccc(CNC(=O)[C@@H]2C[C@@H](O)CN2C(=O)[C@@H](NC(=O)CCOCCOCCOCCOCCC(=O)NCCOc2ccc(C(=C(CCCl)c3ccccc3)c3ccc(O)cc3)cc2)C(C)(C)C)cc1 [SIAIS208019, N1-(2-(4-(4-chloro-1-(4-hydroxyphenyl)-2-phenylbut-1-en-1-yl)phenoxy)ethyl)-N16-((S)-1-((2S,4R)-4-hydroxy-2-((4-(4-methylthiazol-5-yl)benzyl)carbamoyl)pyrrolidin-1-yl)-3,3-dimethyl-1-oxobutan-2-yl)-4,7,10,13-tetraoxahexadecanediamide]
< 10	< 50	Cc1ncsc1-c1ccc(CNC(=O)[C@@H]2C[C@@H](O)CN2C(=O)[C@@H](NC(=O)CCC(=O)NCCOc2ccc(C(=C(CCCl)c3ccccc3)c3ccc(O)cc3)cc2)C(C)(C)C)cc1 [SIAIS208020, N1-(2-(4-(4-chloro-1-(4-hydroxyphenyl)-2-phenylbut-1-en-1-yl)phenoxy)ethyl)-N4-((S)-1-((2S,4R)-4-hydroxy-2-((4-(4-methylthiazol-5-yl)benzyl)carbamoyl)pyrrolidin-1-yl)-3,3-dimethyl-1-oxobutan-2-yl)succinamide]
< 10	< 10	Cc1ncsc1-c1ccc(CNC(=O)[C@@H]2C[C@@H](O)CN2C(=O)[C@@H](NC(=O)CCCCCC(=O)NCCOc2ccc(C(=C(CCCl)c3ccccc3)c3ccc(O)cc3)cc2)C(C)(C)C)cc1 [SIAIS208033, N1-(2-(4-(4-chloro-1-(4-hydroxyphenyl)-2-phenylbut-1-en-1-yl)phenoxy)ethyl)-N7-((S)-1-((2S,4R)-4-hydroxy-2-((4-(4-methylthiazol-5-yl)benzyl)carbamoyl)pyrrolidin-1-yl)-3,3-dimethyl-1-oxobutan-2-yl)heptanediamide]
< 10	< 10	Cc1ncsc1-c1ccc(CNC(=O)[C@@H]2C[C@@H](O)CN2C(=O)[C@@H](NC(=O)CCCCCCC(=O)NCCOc2ccc(C(=C(CCCl)c3ccccc3)c3ccc(O)cc3)cc2)C(C)(C)C)cc1 [SIAIS208034, N1-(2-(4-(4-chloro-1-(4-hydroxyphenyl)-2-phenylbut-1-en-1-yl)phenoxy)ethyl)-N8-((S)-1-((2S,4R)-4-hydroxy-2-((4-(4-methylthiazol-5-yl)benzyl)carbamoyl)pyrrolidin-1-yl)-3,3-dimethyl-1-oxobutan-2-yl)octanediamide]
< 10	< 10	Cc1ncsc1-c1ccc(CNC(=O)[C@@H]2C[C@@H](O)CN2C(=O)[C@@H](NC(=O)CCCCCCCCC(=O)NCCOc2ccc(/C(=C(/CCCl)c3ccccc3)c3ccc(O)cc3)cc2)C(C)(C)C)cc1 [SIAIS208036, N1-(2-(4-((Z)-4-chloro-1-(4-hydroxyphenyl)-2-phenylbut-1-en-1-yl)phenoxy)ethyl)-N10-((S)-1-((2S,4R)-4-hydroxy-2-((4-(4-methylthiazol-5-yl)benzyl)carbamoyl)pyrrolidin-1-yl)-3,3-dimethyl-1-oxobutan-2-yl)decanediamide]
